Experimental findings from PubChem BioAssay (NCI) are described below.

Each structure is given as a SMILES string.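 These data come from cells grown in 96-well plates and exposed to compound for 48 hours at five concentrations. Abbreviation: GI50, concentration required for 50% inhibition of growth. At the TGI there is no net growth.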 Where only a bound is given, the exact number is not on record here.

Test systems include SW-620 colon; T-47D breast; M14 melanoma; RPMI-8226 leukemia; K-562 leukemia; SF-268 CNS; RXF 393 renal; SK-MEL-5 melanoma; CCRF-CEM leukemia; OVCAR-3 ovarian.
Holding throughout (test): NCI tumour cell line growth inhibition, 48 h

As for `O=c1[nH]c(Nc2ccc(Cl)c(C(F)(F)F)c2)nc2nc[nH]c12`, the TGI in the test with SW-620 colon, in the test on T-47D breast, in the test on M14 melanoma, in the test with RPMI-8226 leukemia, with K-562 leukemia and in the test with SF-268 CNS was over 100 µM each time. For the same compound, the TGI in the test with RXF 393 renal is over 100 µM; in the test with SK-MEL-5 melanoma, over 100 µM; in the test with CCRF-CEM leukemia, 45.4 µM; with OVCAR-3 ovarian, over 100 µM.

Take `O=C(O[C@@H](/C=C/c1ccccc1)P1(=O)N(Cc2ccccc2)[C@H]2CCCC[C@@H]2N1Cc1ccccc1)c1ccccc1`: the TGI was over 100 µM in the test with SW-620 colon; 47.2 µM in the test on T-47D breast; over 100 µM in the test with M14 melanoma; 7.31 µM in the test on RPMI-8226 leukemia; over 100 µM with K-562 leukemia; over 100 µM in the test with SF-268 CNS. The TGI was 7.85 µM with RXF 393 renal, 3.67 µM with SK-MEL-5 melanoma, 17.9 µM with CCRF-CEM leukemia and 33.9 µM in the test with OVCAR-3 ovarian.

`O=C(O)c1ccc(C(=O)c2ccccc2C(=O)O)cc1C(=O)O`: the TGI in the test on SW-620 colon, in the test on T-47D breast, in the test on M14 melanoma, in the test on RPMI-8226 leukemia, in the test on K-562 leukemia and in the test on SF-268 CNS was over 100 µM each time. The TGI in the test on RXF 393 renal, with SK-MEL-5 melanoma, in the test on CCRF-CEM leukemia and in the test with OVCAR-3 ovarian was over 100 µM in each case.

For the compound `COCCNCc1ccc(-c2cc3nccc(Oc4ccc(NC(=S)NC(=O)Cc5ccc(F)cc5)cc4F)c3s2)nc1`, the GI50 with T-47D breast is 2120 nM; with RPMI-8226 leukemia it was 2040 nM; with SF-268 CNS, 1880 nM; in the test with OVCAR-3 ovarian, 1930 nM. Besides, the TGI with T-47D breast is 5.75 µM; in the test on RPMI-8226 leukemia it was 5.13 µM; with SF-268 CNS, 4.73 µM; in the test on OVCAR-3 ovarian, 3.52 µM.

As for `CC(C)(C)OC(=O)n1c2ccccc2c2c(=O)nc(N3CCCCC3)sc21`, the TGI with SW-620 colon, in the test on T-47D breast, in the test on M14 melanoma, in the test with RPMI-8226 leukemia, in the test with K-562 leukemia and in the test on SF-268 CNS was over 100 µM each time. Further, the TGI in the test with SK-MEL-5 melanoma, in the test with CCRF-CEM leukemia and in the test on OVCAR-3 ovarian was over 100 µM in each case.

Take `O=c1ccc2nc3cc(Br)ccc3sc-2c1`: the TGI with SW-620 colon is over 100 µM; in the test with M14 melanoma it was over 100 µM; in the test with K-562 leukemia, over 100 µM; with SF-268 CNS, over 100 µM; in the test with SK-MEL-5 melanoma it was over 100 µM; with CCRF-CEM leukemia, 72.5 µM. In addition, in the test on OVCAR-3 ovarian, the TGI was over 100 µM.

As to `OCc1cn(C(c2ccccc2)(c2ccccc2)c2ccccc2)cn1`, the TGI in the test on SW-620 colon, in the test with T-47D breast, with M14 melanoma, in the test with RPMI-8226 leukemia, in the test on K-562 leukemia and in the test on SK-MEL-5 melanoma was over 100 µM in each case. The TGI with CCRF-CEM leukemia and with OVCAR-3 ovarian was over 100 µM each time.

For the compound `N#CC12Cc3cc4c(cc3-c3cccc(c31)CCN2C(=O)c1ccccc1)OCO4` (stereo not drawn), the TGI in the test with SW-620 colon, in the test with M14 melanoma, in the test with RPMI-8226 leukemia, in the test with K-562 leukemia, in the test on SF-268 CNS and in the test on RXF 393 renal was over 100 µM in each case. Also, the TGI in the test with SK-MEL-5 melanoma, with CCRF-CEM leukemia and with OVCAR-3 ovarian was over 100 µM each time.

Turning to `CCOC(=O)C(/C(=N/S(=O)(=O)c1cc(C)c(Cl)cc1[S-])[n+]1ccc(N(C)C)cc1)=C(/O)c1ccc([N+](=O)[O-])cc1`, the TGI was over 100 µM with T-47D breast; 96.6 µM with M14 melanoma; 63.7 µM with RPMI-8226 leukemia; over 100 µM in the test with K-562 leukemia; over 100 µM in the test with SF-268 CNS; over 100 µM in the test with RXF 393 renal. In addition, the results for the TGI in the test with SK-MEL-5 melanoma, in the test on CCRF-CEM leukemia and with OVCAR-3 ovarian were over 100 µM, 87.2 µM and over 100 µM, respectively.

As for `O=c1[nH]c2nnc(COc3ccc(Cl)cc3Cl)n2nc1Cc1ccccc1`, the TGI in the test on SW-620 colon, in the test on T-47D breast, with M14 melanoma, in the test on RPMI-8226 leukemia, in the test on K-562 leukemia and in the test on SF-268 CNS was over 100 µM throughout. Besides, the TGI is 44.6 µM with RXF 393 renal, over 100 µM with SK-MEL-5 melanoma, over 100 µM with CCRF-CEM leukemia and 74.3 µM in the test with OVCAR-3 ovarian.

With `C[N+]1(CCC(=O)c2ccco2)CC2CCC(CC2)C1` (stereo not drawn), the TGI with SW-620 colon, in the test with T-47D breast, in the test with M14 melanoma, in the test on RPMI-8226 leukemia, in the test with K-562 leukemia and in the test on SF-268 CNS was over 100 µM throughout. For the same compound, the TGI with RXF 393 renal, in the test on SK-MEL-5 melanoma and in the test on OVCAR-3 ovarian was over 100 µM each time.

For `OC(c1ccccc1)(c1ccccc1)c1nccc2ccccc12`, the TGI in the test on T-47D breast was over 100 µM; in the test with M14 melanoma it was 49.9 µM; in the test with RPMI-8226 leukemia it was over 100 µM; with SF-268 CNS it was over 100 µM; with SK-MEL-5 melanoma, 27 µM; in the test with CCRF-CEM leukemia, 95.5 µM. In the test with OVCAR-3 ovarian, this compound yielded a TGI of 52.5 µM.

Consider `Nc1c(C(=O)O)nnc2cc(Cl)c(Cl)cc12`, for which the TGI with SW-620 colon, in the test with T-47D breast, in the test on M14 melanoma, in the test with RPMI-8226 leukemia, in the test with K-562 leukemia and with SF-268 CNS was over 100 µM each time. The TGI in the test on SK-MEL-5 melanoma, in the test with CCRF-CEM leukemia and in the test with OVCAR-3 ovarian was over 100 µM in each case.

As to `COc1ccc2nc3c(C(=O)NCCN(C)C)cccc3cc2c1`, the TGI was 5.1 µM in the test on SW-620 colon; 6.23 µM in the test on RPMI-8226 leukemia; 17.1 µM in the test on K-562 leukemia; 12.1 µM in the test on SF-268 CNS; 5.28 µM with RXF 393 renal; 3.28 µM with SK-MEL-5 melanoma. In addition, the values for the TGI with CCRF-CEM leukemia and in the test with OVCAR-3 ovarian were 8.14 µM and over 28.6 µM, respectively.
